From paper PMC12435445, “Crown Ether–Peptide Rotaxanes” (Angewandte Chemie (International Ed. in English), 2025) come the findings set out here.

A short description of the series: Stability of rotaxane positional isomers to heating or standing, followed by 1H NMR. In kind it is physicochemical. As to the method:
The properties of the 1:0:0‐, 0:1:0‐ and 0:0:1‐diastereomers of 24C8⊂16 were probed using a range of spectroscopic and spectrometric techniques. No change in the ^1H NMR spectra of the rotaxane positional isomers occurred upon heating at 70 °C in DMSO‐d6 for 2 h, or after prolonged periods at room temperature. […] When compared to the noninterlocked thread peptide 16; significant downfield shifts are observed for Hb in 1:0:0–24C8⊂16 (ΔδHb = +0.45 ppm), Hh in 0:1:0–24C8⊂16 (ΔδHh = +0.30 ppm) and Hq in 0:0:1–24C8⊂16 (ΔδHq = +0.21 ppm). The protons associated with the encapsulated glycine residue are also downshifted (protons Hf, Ho and Hu, in 1:0:0–24C8⊂16, 0:1:0–24C8⊂16 and 0:0:1–24C8⊂16, respectively). Substantial upfield shifts for the amide protons Ha, He, Hg, Hn (ΔδH = −0.78, −0.43, −0.40, and −0.49 ppm) in 1:0:0–24C8⊂16, Hg, Hn, Hp, and Ht in 0:1:0–24C8⊂16 (ΔδH = −0.26, −0.48, −0.45, and −0.44 ppm), and Hp, Ht and Hv (ΔδH = −0.33, −0.44, and −0.63 ppm) in 0:0:1–24C8⊂16 indicate that the crown ether also interacts with the amide group of the C‐adjacent residue. As in the tripeptide rotaxanes 24C8⊂4–14, the diastereotopic splitting for the encapsulated glycine methylene becomes more pronounced, as do the protons of the leucine residue (Hd), within 1:0:0–24C8⊂16. The presence of the macrocycle reduces the rotation of nearby amides within the compartment it occupies.

As for “Boc‐Leu‐Gly‐Trp‐Gly‐Tyr(TIPS)‐Gly‐Phe‐OMe [1:0:0–24C8⊂16, 24C8 crown ether–heptapeptide [2]rotaxane, ring on left‐hand glycine between Boc‐Leu and Trp of axle 16]”, the “change in the 1H NMR spectra (interconversion of positional isomers or dethreading of macrocycle)” value is listed as “No change” (heating at 70 °C in DMSO-d6 for 2 h) and “No change” (prolonged periods at room temperature).
